In ChEMBL document CHEMBL3137667, “[Drug-induced liver injury; fourteenth updated edition of the bibliographic database of liver injuries and related drugs]” (Gastroenterol Clin Biol, 2004):

Columns and labels:
[1] = Highest frequency of moderate liver toxicity observed during clinical trials, expressed as a percentage. [column '% BIOL' in source]; settings: human
[2] = Highest frequency of acute liver toxicity observed during clinical trials, expressed as a percentage. [column '% AIGUE' in source]; settings: human
[3] = human, serum
[4] = human, serum; remark: listed apart in the source
[5] = human
[6] = human; remark: listed apart in the source
[7] = human; remark: listed apart in the source
[8] = human, serum, 4383 h
[9] = human; remark: listed apart in the source
[10] = human; remark: listed apart in the source
[11] = human; remark: listed apart in the source
[12] = human; remark: listed apart in the source
[13] = human; remark: listed apart in the source
[14] = human; remark: listed apart in the source
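For Hepatotoxicity (association with vascular disease) in this document: count of indexed literature references reporting vascular liver injury in humans, e.g. peliosis hepatitis, hepatic veno-occlusive disease or Budd-Chiari syndrome.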
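For Hepatotoxicity (benign tumour) in this document: value is a count of indexed literature references citing a benign tumour confirmed by histopathology.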
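For Hepatotoxicity (choleostasis) in this document: human cholestatic liver injury, shown by histopathology or by peak ALT or AST elevation over alkaline phosphatase ratio below 2, value counts indexed literature reports.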
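For Hepatotoxicity (chronic liver disease) in this document: chronic liver injury confirmed by histopathology or persistently raised serum aminotransferase activity beyond 6 months, value given as the count of indexed literature references.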
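For Hepatotoxicity (cirrhosis) in this document: value is a count of indexed literature references reporting cirrhosis confirmed by histopathology.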
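For Hepatotoxicity (cytolytic) in this document: human cytolytic liver injury, shown by histopathology or by a ratio above 5 of peak ALT or AST elevation to alkaline phosphatase elevation, value counts indexed references.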
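For Hepatotoxicity (granulomatous hepatitis) in this document: value is a count of indexed literature references reporting granulomatous liver disease confirmed by histopathology.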
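For Hepatotoxicity (malignant tumour) in this document: malignant tumour confirmed by histopathology, value gives the count of indexed literature references reporting it.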
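For Hepatotoxicity (severe hepatitis) in this document: human clinical data: severe hepatitis, meaning potentially life-threatening liver failure or clinically observed cases, the value counts how many indexed literature references report it.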
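For Hepatotoxicity (steatosis) in this document: steatosis confirmed by histopathology, value is the count of indexed references.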

SMILES	Hepatotoxicity (moderate) [1] [%]	Hepatotoxicity (acute) [2] [%]	Hepatotoxicity (moderate) [3]	Hepatotoxicity (acute) [4]	Hepatotoxicity (cytolytic) [5]	Hepatotoxicity (choleostasis) [6]	Hepatotoxicity (severe hepatitis) [7]	Hepatotoxicity (chronic liver disease) [8]	Hepatotoxicity (cirrhosis) [9]	Hepatotoxicity (granulomatous hepatitis) [10]	Hepatotoxicity (association with vascular disease) [11]	Hepatotoxicity (steatosis) [12]	Hepatotoxicity (malignant tumour) [13]	Hepatotoxicity (benign tumour) [14]
NCC[C@H](O)C(=O)N[C@@H]1C[C@H](N)[C@@H](O[C@H]2O[C@H](CN)CC[C@H]2N)[C@H](O)[C@H]1O[C@H]1O[C@H](CO)[C@@H](O)[C@H](N)[C@H]1O [ARBEKACIN]	27.3	0	30	0	0	0	0	0	0	0	0	0	0	0
COC(=O)C[C@](O)(CCCC(C)(C)O)C(=O)O[C@@H]1C(OC)=C[C@]23CCCN2CCc2cc4c(cc2[C@H]13)OCO4 [OMACETAXINE MEPESUCCINATE]	15	0	3	0	0	0	0	0	0	0	0	0	0	0
CC(C)(C)C(=O)OCOC(=O)[C@@H]1N2C(=O)[C@@H](NC(=O)[C@H](N)c3ccccc3)[C@H]2SC1(C)C [PIVAMPICILLIN]	0	0	0	1	1	0	0	0	0	0	0	0	0	0
CCCCCOC(=O)Nc1nc(=O)n([C@@H]2O[C@H](C)[C@@H](O)[C@H]2O)cc1F [CAPECITABINE]	61.8	0	1	0	0	0	0	0	0	0	0	0	0	0
